Molecules are shown by their SMILES.

This test deals with T1, recombinant human pancreatic GLK (Homo sapiens, UniProt P35557).
T1 sequence (P35557 1-465): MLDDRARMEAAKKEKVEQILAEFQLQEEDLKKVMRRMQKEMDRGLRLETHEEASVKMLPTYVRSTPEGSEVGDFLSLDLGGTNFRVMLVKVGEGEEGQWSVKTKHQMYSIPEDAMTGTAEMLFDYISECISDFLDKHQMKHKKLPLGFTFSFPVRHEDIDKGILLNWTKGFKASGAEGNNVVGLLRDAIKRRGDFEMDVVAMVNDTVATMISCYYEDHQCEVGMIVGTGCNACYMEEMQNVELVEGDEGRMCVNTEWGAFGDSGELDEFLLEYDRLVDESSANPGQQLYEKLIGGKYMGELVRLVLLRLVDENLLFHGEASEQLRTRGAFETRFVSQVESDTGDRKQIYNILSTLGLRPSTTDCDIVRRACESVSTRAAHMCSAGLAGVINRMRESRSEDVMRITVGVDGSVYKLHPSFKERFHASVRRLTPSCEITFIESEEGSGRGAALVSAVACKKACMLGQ
Put plainly: biochemical.
Take `Cc1ccc(NC(=O)[C@H](COC[C@H](C)O)Oc2ncnc3c2cnn3-c2ncccc2Cl)nc1` [Example 204, (2S)-2-(1-(3-chloropyridin-2-yl)-1H-pyrazolo[3,4-d]pyrimidin-4-yloxy)-3-((S)-2-hydroxypropoxy)-N-(5-methylpyridin-2-yl)propanamide]: the EC50 (commonly the concentration needed to bring the measured effect to its halfway point) amounted to 1300 nM.

For the compound `Cc1ccc(NC(=O)[C@H](CN2CC(O)C2)Oc2ncnc3c2cnn3-c2ccccc2Cl)nc1` [Example 205, (2S)-2-(1-(2-chlorophenyl)-1H-pyrazolo[3,4-d]pyrimidin-4-yloxy)-3-(3-hydroxyazetidin-1-yl)-N-(5-methylpyridin-2-yl)propanamide], the EC50 stood at 240 nM.

On to `Cc1ccc(NC(=O)[C@H](CN2CC(O)C2)Oc2ncnc3c2cnn3-c2ncccc2Cl)nc1` [Example 206, (2S)-2-(1-(3-chloropyridin-2-yl)-1H-pyrazolo[3,4-d]pyrimidin-4-yloxy)-3-(3-hydroxyazetidin-1-yl)-N-(5-methylpyridin-2-yl)propanamide], for which the concentration for a half-maximal effect (EC50) came to 570 nM.

For the compound `Cc1c(C#N)cccc1-n1ncc2c(O[C@@H](COCCO)C(=O)Nc3ccc(C#N)cn3)ncnc21` [Example 207, (2S)-2-(1-(3-cyano-2-methylphenyl)-1H-pyrazolo[3,4-d]pyrimidin-4-yloxy)-N-(5-cyanopyridin-2-yl)-3-(2-hydroxyethoxy)propanamide], the EC50 is 5000 nM.

As for `Cc1ccc(NC(=O)[C@H](COCCO)Oc2ncnc3c2cnn3-c2cccc(C#N)c2C)nc1` [Example 208, (2S)-2-(1-(3-cyano-2-methylphenyl)-1H-pyrazolo[3,4-d]pyrimidin-4-yloxy)-3-(2-hydroxyethoxy)-N-(5-methylpyridin-2-yl)propanamide], the concentration for a half-maximal effect (EC50) is 2800 nM.

Turning to `Cc1c(C#N)cccc1-n1ncc2c(O[C@@H](COCCO)C(=O)Nc3ccc(Cl)cn3)ncnc21` [Example 209, (2S)—N-(5-chloropyridin-2-yl)-2-(1-(3-cyano-2-methylphenyl)-1H-pyrazolo[3,4-d]pyrimidin-4-yloxy)-3-(2-hydroxyethoxy)propanamide], the EC50 came out at 1500 nM.

Consider `CCOC[C@H](Oc1ncnc2c1cnn2-c1nccn1C)C(=O)Nc1ccc(Cl)cn1` [Example 210, (2S)—N-(5-chloropyridin-2-yl)-3-ethoxy-2-(1-(1-methyl-1H-imidazol-2-yl)-1H-pyrazolo[3,4-d]pyrimidin-4-yloxy)propanamide], for which the concentration for a half-maximal effect (EC50) came out at 1200 nM.

In the case of `Cc1ccc(NC(=O)[C@H](COC(C)C)Oc2ncnc3c2cnn3-c2nccn2C)nc1` [Example 211, (2S)-3-isopropoxy-2-(1-(1-methyl-1H-imidazol-2-yl)-1H-pyrazolo[3,4-d]pyrimidin-4-yloxy)-N-(5-methylpyridin-2-yl)propanamide], the EC50 is 1100 nM.

In the case of `O=C(Nc1ccc(Cl)cn1)[C@H](CCCO)Oc1ncnc2c1cnn2-c1ncccc1Cl` [Example 212, (2S)—N-(5-chloropyridin-2-yl)-2-(1-(3-chloropyridin-2-yl)-1H-pyrazolo[3,4-d]pyrimidin-4-yloxy)-5-hydroxypentanamide], the EC50 worked out at 490 nM.

Turning to `N#Cc1ccc(NC(=O)[C@H](CCCO)Oc2ncnc3c2cnn3-c2ncccc2Cl)nc1` [Example 213, (2S)-2-(1-(3-chloropyridin-2-yl)-1H-pyrazolo[3,4-d]pyrimidin-4-yloxy)-N-(5-cyanopyridin-2-yl)-5-hydroxypentanamide], the EC50 was determined as 1100 nM.

For `CCOC[C@H](Oc1ncnc2c1cnn2-c1cccc(Cl)c1Cl)C(=O)Nc1ccc(C#N)cn1` [Example 214, (2S)—N-(5-cyanopyridin-2-yl)-2-(1-(2,3-dichlorophenyl)-1H-pyrazolo[3,4-d]pyrimidin-4-yloxy)-3-ethoxypropanamide], the EC50 came to 320 nM.

In the case of `O=C(Nc1ccc(F)cn1)[C@H](CN1CC(O)C1)Oc1ncnc2c1cnn2-c1ccccc1Cl` [Example 215, (2S)-2-[1-(2-chlorophenyl)pyrazolo[4,5-e]pyrimidin-4-yl]oxy-N-(5-fluoro-2-pyridyl)-3-(3-hydroxyazetidin-1-yl)propanamide], the concentration for a half-maximal effect (EC50) was 229 nM.

On to `C[C@H](CO)OC[C@H](Oc1ncnc2c1cnn2-c1c(Cl)cccc1C#N)C(=O)Nc1ccc(Cl)cn1` [Example 216, (2S)-2-[1-(2-chloro-6-cyano-phenyl)pyrazolo[4,5-e]pyrimidin-4-yl]oxy-N-(5-chloro-2-pyridyl)-3-[(1R)-2-hydroxy-1-methyl-ethoxy]propanamide], for which the EC50 came out at 163 nM.

In the case of `O=C(Nc1ccc(F)cn1)[C@H](COCCO)Oc1ncnc2c1cnn2-c1c(Cl)cccc1Cl` [Example 218, (2S)-2-[1-(2,6-dichlorophenyl)pyrazolo[4,5-e]pyrimidin-4-yl]oxy-N-(5-fluoro-2-pyridyl)-3-(2-hydroxyethoxy)propanamide], the concentration for a half-maximal effect (EC50) is 215 nM.

Regarding `Cc1cnc(NC(=O)[C@H](CN2CC(O)C2)Oc2ncnc3c2cnn3-c2ccccc2Cl)cn1` [Example 219, (2S)-2-[1-(2-chlorophenyl)pyrazolo[4,5-e]pyrimidin-4-yl]oxy-3-(3-hydroxyazetidin-1-yl)-N-(5-methylpyrazin-2-yl)propanamide], the 50% effective concentration (EC50) was 280 nM.

For the compound `N#Cc1cccc(Cl)c1-n1ncc2c(O[C@@H](CN3CCC3)C(=O)Nc3ccccn3)ncnc21` [Example 221, (2S)-3-(azetidin-1-yl)-2-[1-(2-chloro-6-cyano-phenyl)pyrazolo[3,4-d]pyrimidin-4-yl]oxy-N-(2-pyridyl)propanamide], the concentration giving a half-maximal response (EC50) came out at 310 nM.

With `O=C(Nc1ccccn1)[C@H](CN1CC(O)C1)Oc1ncnc2c1cnn2-c1c(F)cccc1Cl` [Example 222, (2S)-2-[1-(2-chloro-6-fluoro-phenyl)pyrazolo[3,4-d]pyrimidin-4-yl]oxy-3-(3-hydroxyazetidin-1-yl)-N-(2-pyridyl)propanamide], the EC50 stood at 140 nM.

For the compound `N#Cc1ccc(NC(=O)[C@H](CN2CC(O)C2)Oc2ncnc3c2cnn3-c2ccccc2Cl)nc1` [Example 223, (2S)-2-[1-(2-chlorophenyl)pyrazolo[3,4-d]pyrimidin-4-yl]oxy-N-(5-cyano-2-pyridyl)-3-(3-hydroxyazetidin-1-yl)propanamide], the EC50 worked out at 310 nM.

Take `N#Cc1ccc(NC(=O)[C@H](CN2CC(O)C2)Oc2ncnc3c2cnn3-c2c(Cl)cccc2C#N)nc1` [Example 224, (2S)-2-[1-(2-chloro-6-cyano-phenyl)pyrazolo[3,4-d]pyrimidin-4-yl]oxy-N-(5-cyano-2-pyridyl)-3-(3-hydroxyazetidin-1-yl)propanamide]: the EC50 worked out at 510 nM.

For `O=C(Nc1ccccn1)[C@H](CN1CC(O)C1)Oc1ncnc2c1cnn2-c1ccccc1Cl` [Example 225, (2S)-2-[1-(2-chlorophenyl)pyrazolo[3,4-d]pyrimidin-4-yl]oxy-3-(3-hydroxyazetidin-1-yl)-N-(2-pyridyl)propanamide], the EC50 was determined as 220 nM.

As for `O=C(Nc1ccc(Cl)cn1)[C@H](CN1CC(O)C1)Oc1ncnc2c1cnn2-c1ccccc1Cl` [Example 226, (2S)-2-[1-(2-chlorophenyl)pyrazolo[3,4-d]pyrimidin-4-yl]oxy-N-(5-chloro-2-pyridyl)-3-(3-hydroxyazetidin-1-yl)propanamide], the EC50 is 130 nM.

Regarding `Cc1ccc(NC(=O)[C@H](CO[C@H](C)CO)Oc2ncnc3c2cnn3-c2cscc2C)nc1` [Example 227, (2S)-3-[(1R)-2-hydroxy-1-methyl-ethoxy]-N-(5-methyl-2-pyridyl)-2-[1-(4-methyl-3-thienyl)pyrazolo[3,4-d]pyrimidin-4-yl]oxy-propanamide], the EC50 came to 320 nM.

Regarding `O=C(Nc1ccccn1)[C@H](CN1CC(CO)C1)Oc1ncnc2c1cnn2-c1ccccc1Cl` [Example 228, (2S)-2-[1-(2-chlorophenyl)pyrazolo[3,4-d]pyrimidin-4-yl]oxy-3-[3-(hydroxymethyl)azetidin-1-yl]-N-(2-pyridyl)propanamide], the concentration for a half-maximal effect (EC50) turned out to be 460 nM.

Turning to `O=C(Nc1ccc(F)cn1)[C@H](CN1CC(O)C1)Oc1ncnc2c1cnn2-c1c(F)cccc1Cl` [Example 229, (2S)-2-[1-(2-chloro-6-fluoro-phenyl)pyrazolo[3,4-d]pyrimidin-4-yl]oxy-N-(5-fluoro-2-pyridyl)-3-(3-hydroxyazetidin-1-yl)propanamide], the EC50 is 110 nM.

Take `O=C(Nc1ccc(F)cn1)[C@H](CN1CC(O)C1)Oc1ncnc2c1cnn2-c1c(Cl)cccc1Cl` [Example 230, (2S)-2-[1-(2,6-dichlorophenyl)pyrazolo[3,4-d]pyrimidin-4-yl]oxy-N-(5-fluoro-2-pyridyl)-3-(3-hydroxyazetidin-1-yl)propanamide]: the 50% effective concentration (EC50) came out at 110 nM.

As for `C[C@H](CO)OC[C@H](Oc1ncnc2c1cnn2-c1c(Cl)cccc1C#N)C(=O)Nc1ccccn1` [Example 231, (2S)-2-[1-(2-chloro-6-cyano-phenyl)pyrazolo[3,4-d]pyrimidin-4-yl]oxy-3-[(1R)-2-hydroxy-1-methyl-ethoxy]-N-(2-pyridyl)propanamide], the EC50 is 260 nM.

Turning to `Cc1ccc(NC(=O)[C@H](CO[C@H](C)CO)Oc2ncnc3c2cnn3-c2ncccc2Cl)nc1` [Example 232, (2S)-2-[1-(3-chloro-2-pyridyl)pyrazolo[3,4-d]pyrimidin-4-yl]oxy-3-[(1R)-2-hydroxy-1-methyl-ethoxy]-N-(5-methyl-2-pyridyl)propanamide], the EC50 was 540 nM.

With `O=C(Nc1ccccn1)[C@H](CN1CC(O)C1)Oc1ncnc2c1cnn2-c1c(Cl)cccc1Cl` [Example 233, (2S)-2-[1-(2,6-dichlorophenyl)pyrazolo[3,4-d]pyrimidin-4-yl]oxy-3-(3-hydroxyazetidin-1-yl)-N-(2-pyridyl)propanamide], the EC50 stood at 210 nM.

Values taken from US8143263B2, “Therapeutic agents” (Astrazeneca AB, priority 2008, dated 2012).
